What was measured:
Details in all cases: exposure time: 15 min to 3 h acute
[1] = tested on: Dugesia japonica; assay: noxious heat displacement strength vs vehicle (% change vs vehicle); higher = higher incidence or increase relative to vehicle control
How it was run: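 Values are the median percent change in displacement strength under noxious heat, scored by automated object tracking in the scrunching assay with intact, fasted Dugesia japonica. Each worm was placed alone in a well of a 48-well plate in 200 μL and tested 15 min to 3 h after exposure in 0.5% DMSO or water vehicle. Eight worms per concentration per plate were run in technical triplicate (n = 24), with each worm normalised to the plate's vehicle median and worms that crawled out excluded.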

[2] = tested on: Dugesia japonica; assay: C-shape incidence (% planarians (vehicle-normalised)); higher = higher incidence or increase relative to vehicle control
How it was run: (§1)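 Single D. japonica planarians, fasted 5–7 days, sat in 200 μL per well of sealed 48-well plates and were screened 15 minutes–3 hours after exposure to at least 5 concentrations. Shapes were scored by hand and blind. The reported value is the incidence of a particular shape, or of any abnormal shape, ×100, set against in-plate vehicle controls with negatives taken as 0.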

[3] = tested on: Dugesia japonica; assay: pharynx extrusion incidence (% planarians (vehicle-normalised)); higher = higher incidence or increase relative to vehicle control
How it was run: (§2)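 Pharynx extrusion was scored manually and blind as a body-shape category in intact, fasted Dugesia japonica, one per well of a 48-well plate in 200 μL. Worms were tested 15 min to 3 h after exposure in 0.5% DMSO or water vehicle. Eight worms per concentration per plate were run in technical triplicate (n = 24). The incidence rate ×100 was normalised to in-plate vehicle controls, negatives were set to 0, and worms that crawled out were excluded.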

[4] = tested on: Dugesia japonica; assay: total locomotor bursts minus vehicle (bursts difference vs vehicle); higher = higher incidence or increase relative to vehicle control
How it was run: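 Planarians of the species Dugesia japonica, fasted beforehand, received half- or quarter-log concentration series in 0.5% DMSO or water, one animal per well of a sealed 48-well plate holding 200 μL solution. They were tested 15 min–3 h after exposure in technical triplicates totalling n = 24. Each animal's count of total locomotor bursts, an unstimulated behaviour obtained by image-based object tracking, had the plate vehicle-control median subtracted without ×100 scaling. The figure given is the median normalised response, with crawled-out worms excluded.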

[5] = tested on: Dugesia japonica; assay: resting fraction in dark vs vehicle (difference in fraction x100 vs vehicle); higher = higher incidence or increase relative to vehicle control
How it was run: (§3)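 The resting fraction, in the dark or under blue light, comes from automated tracking of intact, fasted Dugesia japonica. Worms sat singly in wells of a 48-well plate in 200 μL and were tested 15 min to 3 h after exposure in 0.5% DMSO or water vehicle. The plate's vehicle median was subtracted from each worm and the difference multiplied by 100, then the median was reported after excluding worms that crawled out.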

[6] = tested on: Dugesia japonica; assay: resting fraction in blue light vs vehicle (difference in fraction x100 vs vehicle); higher = higher incidence or increase relative to vehicle control
How it was run: as §3

[7] = tested on: Dugesia japonica; assay: crawl-out incidence (% planarians); higher = higher incidence or increase relative to vehicle control
[8] = tested on: Dugesia japonica; assay: speed second 30 s blue light vs vehicle (% change vs vehicle); higher = higher incidence or increase relative to vehicle control
How it was run: (§4)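 For each worm, crawling speed under dark or blue-light conditions was tracked automatically and expressed against the median of that plate's vehicle worms, and the reported value is the median percent change. The worms were intact, fasted Dugesia japonica held one per well in 200 μL in a 48-well plate, exposed in 0.5% DMSO or water vehicle and tested from 15 min to 3 h afterwards. Eight were used per concentration per plate across technical triplicate (n = 24), excluding any that crawled out.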

[9] = tested on: Dugesia japonica; assay: corkscrew incidence (% planarians (vehicle-normalised)); higher = higher incidence or increase relative to vehicle control
How it was run: as §1

[10] = tested on: Dugesia japonica; assay: contracted body shape incidence (% planarians (vehicle-normalised)); higher = higher incidence or increase relative to vehicle control
How it was run: as §1

[11] = tested on: Dugesia japonica; assay: hyperkinesis incidence (% planarians (vehicle-normalised)); higher = higher incidence or increase relative to vehicle control
How it was run: as §1

[12] = tested on: Dugesia japonica; assay: anxiety (time in outer well region) vs vehicle (% change vs vehicle); higher = higher incidence or increase relative to vehicle control
How it was run: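 The value is the median normalized time that planarians spent in the outer portion of the well. D. japonica worms, fasted 5–7 days, were held singly in 200 μL per well of sealed 48-well plates at at least 5 concentrations (n = 24 per concentration) and screened within 15 minutes–3 hours. Each worm's response was divided by, or reduced by, the plate vehicle median and then multiplied by 100, and worms that crawled out were left out.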

[13] = tested on: Dugesia japonica; assay: stickiness incidence (% planarians (vehicle-normalised)); higher = higher incidence or increase relative to vehicle control
How it was run: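 Stickiness was scored as a yes-or-no outcome in fasted Dugesia japonica planarians, and incidence was normalised to the vehicle incidence on the same plate. Each worm sat alone in a well of a sealed 48-well plate holding 200 μL of solution and was tested 15 min–3 h after exposure to half- or quarter-log concentration series, with 0.5% DMSO or water as vehicle. Technical triplicates were pooled (n = 24), negative values were set to 0, values were multiplied by 100, and worms that crawled out were excluded.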

[14] = tested on: Dugesia japonica; assay: any abnormal body shape incidence (% planarians (vehicle-normalised)); higher = higher incidence or increase relative to vehicle control
How it was run: as §1

[15] = tested on: Dugesia japonica; assay: speed first 30 s blue light vs vehicle (% change vs vehicle); higher = higher incidence or increase relative to vehicle control
How it was run: as §4

[16] = tested on: Dugesia japonica; assay: speed in dark vs vehicle (% change vs vehicle); higher = higher incidence or increase relative to vehicle control
How it was run: as §4

[17] = tested on: Dugesia japonica; assay: loss of heat-induced scrunching incidence (% planarians (vehicle-normalised)); higher = higher incidence or increase relative to vehicle control
How it was run: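 Planarians of the species D. japonica, fasted for 5–7 days, were placed singly in wells of sealed 48-well plates in 200 μL and exposed to at least 5 concentrations, 24 worms per concentration in technical triplicates. Scrunching in response to a noxious heat stimulus was tested within 15 minutes–3 hours, and any worm that crawled out was excluded. The reported figure is the incidence of non-scrunching worms, normalised to vehicle controls on the same plate. This incidence is given ×100, with negatives set to 0.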

[18] = tested on: Dugesia japonica; assay: loss of phototaxis incidence (% planarians (vehicle-normalised)); higher = higher incidence or increase relative to vehicle control
How it was run: as §2, with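 “Loss of phototaxis” for “Pharynx extrusion”, “scored” for “scored manually and blind”, “yes/no endpoint” for “body-shape category”, “vehicle, using automated object tracking.” for “vehicle.”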

SMILES | noxious heat displacement strength [1] | C-shape incidence [2] | pharynx extrusion incidence [3] | total locomotor bursts minus vehicle [4] | resting fraction in dark [5] | resting fraction in blue light [6] | crawl-out incidence [7] | speed second 30 s blue light [8] | corkscrew incidence [9] | contracted body shape incidence [10] | hyperkinesis incidence [11] | anxiety [12] | stickiness incidence [13] | any abnormal body shape incidence [14] | speed first 30 s blue light [15] | speed in dark [16] | loss of heat-induced scrunching incidence [17] | loss of phototaxis incidence [18]
O=C(CCCN1CCC(O)(c2ccc(Cl)cc2)CC1)c1ccc(F)cc1 [haloperidol] (10 µM) | -26.4 | 0 | 0 | 11.5 | 15.2 | 8.2 | 16.7 | -53.4 | 10 | 5 | 10 | -0.48 | ≤ 0 | 20 | -57.5 | -47.5 | 25 | 20
O=C(CCCN1CCC(O)(c2ccc(Cl)cc2)CC1)c1ccc(F)cc1 [haloperidol] (31.6 µM) | -24 | 0 | 0 | 15.5 | 35.2 | 16.3 | 16.7 | -62.8 | 52.6 | 10.5 | 21.1 | -7.34 | ≤ 0 | 63.2 | -68 | -59.3 | 5 | 15
O=C(CCCN1CCC(O)(c2ccc(Cl)cc2)CC1)c1ccc(F)cc1 [haloperidol] (100 µM) | -19.3 | 0 | 0 | 25 | 48.4 | 30.8 | 4.17 | -68.8 | 28.6 | 0 | 19 | 1.65 | ≤ 0 | 38.1 | -69.3 | -66.9 | 34.8 | 13
CN(C)CCCN1c2ccccc2CCc2ccccc21 [imipramine] (1 µM) | -4.45 | 0 | 0 | 3 | 6.78 | 0.17 | 0 | -18.2 | 0 | 0 | 0 | -4.11 | ≤ 0 | 4.17 | -21.6 | -23.4 | ≤ 0 | ≤ 0
CN(C)CCCN1c2ccccc2CCc2ccccc21 [imipramine] (3.16 µM) | -7.92 | 0 | 0 | 11 | 12.6 | 6.5 | 0 | -43.6 | 0 | 0 | 0 | 3.55 | ≤ 0 | 0 | -51.6 | -44.7 | ≤ 0 | ≤ 0
CN(C)CCCN1c2ccccc2CCc2ccccc21 [imipramine] (10 µM) | -29.7 | 0 | 0 | 10.8 | 4.41 | 3.16 | 0 | -51.7 | 0 | 0 | 0 | 0.22 | 16.7 | 0 | -47.9 | -48.9 | ≤ 0 | 12.5
CN(C)CCCN1c2ccccc2CCc2ccccc21 [imipramine] (31.6 µM) | -21.9 | 0 | 4.17 | 15.2 | 6.51 | 6.1 | 0 | -64.4 | 0 | 12.5 | 33.3 | -4.58 | 34.8 | 45.8 | -68.6 | -64 | ≤ 0 | 20.8
O=C(O)/C=C\C(=O)O [maleic acid] (200 µM) | -39.3 | 0 | 0 | -2 | -12.7 | -5.42 | 0 | -23.8 | 0 | 0 | 0 | 23.7 | 12.5 | 0 | -32.5 | -20.4 | 33.3 | ≤ 0
Cc1ncc2n1-c1ccc(Cl)cc1C(c1ccccc1F)=NC2 [midazolam] (17.8 µM) | -19.1 | 0 | 0 | 1 | 1.03 | -0.5 | 0 | -2.19 | 0 | 0 | 33.3 | -7.26 | ≤ 0 | 33.3 | -3.83 | -14.7 | ≤ 0 | ≤ 0
